Data reported in US20230265104A1, “NOVEL HETEROCYCLIC COMPOUNDS” (PRISM BIOLAB CO., LTD., priority 2020, published 2023).

System: PANC-1 (human pancreatic cancer-derived cell line)
Assay: MTS assay on Panc-1 (human pancreas carcinoma cell line)
Type: cell-based
Conditions: 144 h; for IC50: PANC-1, MTS method, cell survival 6 days after exposure, 4-parameter logistic fit; for inhibition at 30 µM: read-out: Growth inhibition (%) 30 μM; for inhibition at 10 µM: read-out: Growth inhibition (%) 10 μM; for inhibition at 0.3125 µM: read-out: Growth inhibition (%) 0.3125 μM
Procedure: Experimental Example: MTS Assay on Panc-1 (Human Pancreas Carcinoma Cell Line) cell line name: PANC-1 derived from: human pancreas glandular cancer purchased from: ATCC product code: CRL-1469 proliferation medium: D-MEM+10% FBS culture environment: 37° C., 5% CO2 seeding density: 5.0×10^5 cells/25 cm^2 solvent control substance: DMSO (HYBRI-MAX®, Sigma-Aldrich Corp.) test substance: Example compound (ID-1-ID-13) A DMSO solution of the test substance was prepared by serially diluting (common ratio 2) each test substance with DMSO.
A solvent control substance sample and a test substance sample were exposed to a human pancreatic cancer-derived cell line (PANC-1), and the survival rate of the cell 6 days later was measured by the MTS method. The measurement was performed 3 times and the average thereof was adopted. The survival rate of the cell in each test substance sample was calculated by the following formula 1 with the value at exposure of the solvent control substance sample as 100% survival rate. […]
survival rate (%)=100×absorbance of each test substance sample/absorbance of solvent control substance sample formula 1 Normalized values calculated by the following formula 2 from the absorbances of each sample at 492 nm and 630 nm and the absorbances of the blank were used as the absorbances in the above-mentioned formula 1. […]
normalized value (ABS492 nm-630 nm)=(ABSsa 492 nm-ABSsa 630 nm)−(ABSbl 492 nm-ABSbl 630 nm) ABSsa 492: absorbance of each sample at wavelength 492 nm ABSsa 630: absorbance of each sample at wavelength 630 nm ABSbl 492: absorbance of blank corresponding to each sample at wavelength 492 nm ABSbl 630: absorbance of blank corresponding to each sample at wavelength 630 nm formula 2 […]
The analysis was performed by using nplr package on R (The R Foundation for Statistical Computing) and estimating the logistic regression curve (4-parameter).

Q: `CC(C)C[C@H]1ON(C(=O)/C=C/c2nc3ccccc3s2)[C@H]2CN([C@@H]3CCN(CCCCO)C3)C(=O)[C@H](CC(C)(C)C)N2C1=O` [ID-6, (3R,6S,9aS)-1-((E)-3-(benzo[d]thiazol-2-yl)acryloyl)-8-((R)-1-(4-hydroxybutyl)pyrrolidin-3-yl)-3-isobutyl-6-neopentyltetrahydropyrazino[2,1-c][1,2,4]oxadiazine-4,7(3H,6H)-dione] was tested. Which IC50 did it give?
A: 130 nM

Q: With `CC(C)C[C@H]1ON(C(=O)/C=C/c2ccccn2)[C@H]2CN(C3CC4CCC(C3)N4C)C(=O)[C@H](CC(C)C)N2C1=O` (stereo partly drawn) [ID-70, (3R,6S,9aS)-3,6-diisobutyl-8-(8-methyl-8-azabicyclo[3.2.1]octan-3-yl)-1-((E)-3-(pyridin-2-yl)acryloyl)tetrahydropyrazino[2,1-c][1,2,4]oxadiazine-4,7(3H,6H)-dione] as the molecule, how does the IC50 read?
A: 2500 nM

Q: What does the source list for `CC(C)C[C@H]1ON(C(=O)/C=C/c2nccs2)[C@H]2CN(CCC(N)=O)C(=O)[C@H](CC(C)C)N2C1=O` [ID-17, 3-((3R,6S,9aS)-3,6-diisobutyl-4,7-dioxo-1-((E)-3-(thiazol-2-yl)acryloyl)hexahydropyrazino[2,1-c][1,2,4]oxadiazin-8(1H)-yl)propanamide]?
A: IC50: 11400 nM; inhibition at 30 µM (PANC-1, MTS, 6 days): 100%

Q: How did the inhibition at 2.5 µM (PANC-1, MTS, 6 days, 2.5 μM, read-out: Growth inhibition (%) 2.5 μM) turn out when `CC(C)C[C@H]1ON(C(=O)/C=C/c2ccc(C(F)(F)F)cn2)[C@H]2CN(C3CCN(C)CC3)C(=O)[C@H](CC(C)C)N2C1=O` [ID-71, (3R,6S,9aS)-3,6-diisobutyl-8-(1-methylpiperidin-4-yl)-1-((E)-3-(5-(trifluoromethyl)pyridin-2-yl)acryloyl)tetrahydropyrazino[2,1-c][1,2,4]oxadiazine-4,7(3H,6H)-dione] was run?
A: 97.3%

Q: With `CC(C)C[C@H]1ON(C(=O)/C=C/c2cccc3nccnc23)[C@H]2CN(CCC(N)=O)C(=O)[C@H](CC(C)C)N2C1=O` [ID-30, 3-((3R,6S,9aS)-3,6-diisobutyl-4,7-dioxo-1-((E)-3-(quinoxalin-5-yl)acryloyl)hexahydropyrazino[2,1-c][1,2,4]oxadiazin-8 (1H)-yl)propanamide] as the molecule, how does the inhibition at 10 µM (PANC-1, MTS, 6 days) read?
A: 58.4%

Q: How did the IC50 turn out when `CC(=O)N1CCC(N2CCC(N3C[C@@H]4N(C(=O)/C=C/c5ccccn5)O[C@H](CC(C)C)C(=O)N4[C@@H](CC(C)C)C3=O)CC2)CC1` [ID-41, (3R,6S,9aS)-8-(1′-acetyl-[1,4′-bipiperidin]-4-yl)-3,6-diisobutyl-1-((E)-3-(pyridin-2-yl)acryloyl)tetrahydropyrazino[2,1-c][1,2,4]oxadiazine-4,7(3H,6H)-dione] was run?
A: 6300 nM

Q: And the inhibition at 10 µM (PANC-1, MTS, 6 days)?
A: 98.5%

Q: Which inhibition at 0.3125 µM (PANC-1, MTS, 6 days) does the source give for `CC(C)C[C@H]1ON(C(=O)/C=C/c2nc(C#CCN(C)C)cs2)[C@H]2CN([C@H]3CCN(CCCCO)C3)C(=O)[C@H](CC(C)(C)C)N2C1=O` [ID-88, (3R,6S,9aS)-1-((E)-3-(4-(3-(dimethylamino)prop-1-yn-1-yl)thiazol-2-yl)acryloyl)-8-((S)-1-(4-hydroxybutyl)pyrrolidin-3-yl)-3-isobutyl-6-neopentyltetrahydropyrazino[2,1-c][1,2,4]oxadiazine-4,7(3H,6H)-dione] here?
A: 38%

Q: `CC(C)C[C@H]1ON(C(=O)/C=C/c2ccccn2)[C@H]2CN(C3CCC(N(C)C)CC3)C(=O)[C@H](CC(C)C)N2C1=O` (stereo partly drawn) [ID-69, (3R,6S,9aS)-8-(4-(dimethylamino)cyclohexyl)-3,6-diisobutyl-1-((E)-3-(pyridin-2-yl)acryloyl)tetrahydropyrazino[2,1-c][1,2,4]oxadiazine-4,7(3H,6H)-dione] was tested. Which IC50 did it give?
A: 2800 nM

Q: `CNC(=O)CCN1C[C@@H]2N(C(=O)/C=C/c3ccccn3)O[C@H](CC(C)C)C(=O)N2[C@@H](CC(C)C)C1=O` [ID-18, 3-((3R,6S,9aS)-3,6-diisobutyl-4,7-dioxo-1-((E)-3-(pyridin-2-yl)acryloyl)hexahydropyrazino[2,1-c][1,2,4]oxadiazin-8 (1H)-yl)—N-methylpropanamide] was tested. Which IC50 did it give?
A: 15900 nM

Q: What about the inhibition at 30 µM (PANC-1, MTS, 6 days) of the same molecule?
A: 96.4%

Q: With `CC(C)C[C@H]1ON(C(=O)/C=C/c2nc3ccccc3s2)[C@H]2CN(C3CCN(CCCO)CC3)C(=O)[C@H](CC(C)(C)C)N2C1=O` [ID-79, (3R,6S,9aS)-1-((E)-3-(benzo[d]thiazol-2-yl)acryloyl)-8-(1-(3-hydroxypropyl)piperidin-4-yl)-3-isobutyl-6-neopentyltetrahydropyrazino[2,1-c][1,2,4]oxadiazine-4,7(3H,6H)-dione] as the molecule, how does the inhibition at 0.3125 µM (PANC-1, MTS, 6 days) read?
A: 72.2%

Q: For `CC(C)C[C@H]1ON(C(=O)/C=C/c2ncco2)[C@H]2CN(C3CCN(C)CC3)C(=O)[C@H](CC(C)C)N2C1=O` [ID-53, (3R,6S,9aS)-3,6-diisobutyl-8-(1-methylpiperidin-4-yl)-1-((E)-3-(oxazol-2-yl)acryloyl)tetrahydropyrazino[2,1-c] [1,2,4]oxadiazine-4,7(3H,6H)-dione], which IC50 is on record?
A: 1200 nM

Q: What about the inhibition at 10 µM (PANC-1, MTS, 6 days) of the same molecule?
A: 100%

Q: How did the inhibition at 0.3125 µM (PANC-1, MTS, 6 days) turn out when `CC(C)C[C@H]1ON(C(=O)/C=C/c2nc3ccccc3s2)[C@H]2CN(C3CCN(CCC(CO)CO)CC3)C(=O)[C@H](CC(C)(C)C)N2C1=O` [ID-83, (3R,6S,9aS)-1-((E)-3-(benzo[d]thiazol-2-yl)acryloyl)-8-(1-(4-hydroxy-3-(hydroxymethyl)butyl)piperidin-4-yl)-3-isobutyl-6-neopentyltetrahydropyrazino[2,1-c][1,2,4]oxadiazine-4,7(3H,6H)-dione] was run?
A: 46.5%

Q: Which inhibition at 0.15625 µM (PANC-1, MTS, 6 days, 0.15625 μM, read-out: Growth inhibition (%) 0.15625 μM) does the source give for `CC(C)C[C@H]1ON(C(=O)/C=C/c2nc(C#CC3CCOCC3)cs2)[C@H]2CN([C@@H]3CCN(CCCCO)C3)C(=O)[C@H](CC(C)(C)C)N2C1=O` [ID-94, (3R,6S,9aS)-8-((R)-1-(4-hydroxybutyl)pyrrolidin-3-yl)-3-isobutyl-6-neopentyl-1-((E)-3-(4-((tetrahydro-2H-pyran-4-yl)ethynyl)thiazol-2-yl)acryloyl)tetrahydropyrazino[2,1-c] [1,2,4]oxadiazine-4,7-(3H,6H)-dione] here?
A: 42.3%

Q: How did the IC50 turn out when `CC(C)C[C@H]1ON(C(=O)/C=C/c2ccccn2)[C@H]2CN(C3CCN(C4CCCCC4)CC3)C(=O)[C@H](CC(C)C)N2C1=O` [ID-63, (3R,6S,9aS)-8-(1-cyclohexylpiperidin-4-yl)-3,6-diisobutyl-1-((E)-3-(pyridin-2-yl)acryloyl)tetrahydropyrazino[2,1-c][1,2,4]oxadiazine-4,7(3H,6H)-dione] was run?
A: 1400 nM

Q: For `CC(C)C[C@H]1CN(CCCN(C)C2CCN(C)CC2)C[C@@H]2N(C(=O)/C=C/c3ccccn3)O[C@H](CC(C)C)C(=O)N12` [ID-35, (3R,6S,9aS)-3,6-diisobutyl-8-(3-(methyl(1-methylpiperidin-4-yl)amino)propyl)-1-((E)-3-(pyridin-2-yl)acryloyl)hexahydropyrazino[2,1-c][1,2,4]oxadiazin-4(3H)-one], which IC50 is on record?
A: 5000 nM

Q: And the inhibition at 10 µM (PANC-1, MTS, 6 days)?
A: 99%

Q: Which IC50 does the source give for `CC(C)C[C@H]1ON(C(=O)/C=C/c2ccc3ccccc3n2)[C@H]2CN(CCC(N)=O)C(=O)[C@H](CC(C)C)N2C1=O` [ID-20, 3-((3R,6S,9aS)-3,6-diisobutyl-4,7-dioxo-1-((E)-3-(quinolin-2-yl)acryloyl)hexahydropyrazino[2,1-c][1,2,4]oxadiazin-8 (1H)-yl)propanamide] here?
A: 2400 nM

Q: And the inhibition at 30 µM (PANC-1, MTS, 6 days)?
A: 100%

Q: For `CC(C)C[C@H]1ON(C(=O)/C=C/c2nc(-c3cccnc3)cs2)[C@H]2CN([C@H]3CCN(CCCCO)C3)C(=O)[C@H](CC(C)(C)C)N2C1=O` [ID-82, (3R,6S,9aS)-8-((S)-1-(4-hydroxybutyl)pyrrolidin-3-yl)-3-isobutyl-6-neopentyl-1-((E)-3-(4-(pyridin-3-yl)thiazol-2-yl)acryloyl)tetrahydropyrazino[2,1-c][1,2,4]oxadiazine-4,7 (3H, 6H)-dione], which inhibition at 0.3125 µM (PANC-1, MTS, 6 days) is on record?
A: 48.6%

Q: With `CC(C)C[C@H]1ON(C(=O)/C=C/c2nc3ccccc3s2)[C@H]2CN(C3CCN(C)CC3)C(=O)[C@H](CCS(C)(=O)=O)N2C1=O` [ID-74, (3R,6S,9aS)-1-((E)-3-(benzo[d]thiazol-2-yl)acryloyl)-3-isobutyl-8-(1-methylpiperidin-4-yl)-6-(2-(methylsulfonyl)ethyl)tetrahydropyrazino[2,1-c][1,2,4]oxadiazine-4,7(3H,6H)-dione] as the molecule, how does the inhibition at 0.3125 µM (PANC-1, MTS, 6 days) read?
A: 38.7%

Q: Which results are given for `CN1CCC(N2C[C@@H]3N(C(=O)/C=C/c4nc5ccccc5s4)c4ccc(F)cc4C(=O)N3[C@@H](CCCCN(C)C3CCN(C(=O)OC(C)(C)C)CC3)C2=O)CC1` [ID-59, tert-butyl 4-((4-((4S,11aS)-11-((E)-3-(benzo[d]thiazol-2-yl)acryloyl)-8-fluoro-2-(1-methylpiperidin-4-yl)-3,6-dioxo-1,3,4,6,11,11a-hexahydro-2H-pyrazino[2,1-b]quinazolin-4-yl)butyl) (methyl)amino)piperidine-1-carboxylate]?
A: IC50: 550 nM; inhibition at 1 µM (PANC-1, MTS, 6 days, 1 μM, read-out: Growth inhibition (%) 1 μM): 98.8%
